Test results from PMC9131456, “Structure-Based Discovery of Lipoteichoic Acid Synthase Inhibitors” (Journal of Chemical Information and Modeling, 2022).

System: S. aureus (strain Newman)
Test: Thin-section TEM ultrastructure analysis
Assay type: cell-based
Conditions: 5 μM compound 4 or 100 μM compound 9
Protocol: The TEM imaging protocol was adapted from Garufi et al.[68]S. aureus (strain Newman) was grown in 20 mL of MH2 broth with either DMSO, 5 μM of compound 4 or 100 μM of compound 9 at 37 °C. When the control culture had reached an OD600nm ∼ 1, the cells were pelleted at 1520g and submitted to the Cambridge Advanced Imaging Centre for preimaging processing. Briefly, the cells were washed with water and fixed with 2% glutaraldehyde-4% paraformaldehyde in 0.1 M sodium cacodylate buffer (pH 7.2) for 2 h. After fixation, the cells were stained, dehydrated, and embedded in Spurr resin. The resin was cut into thin sections and viewed using a Tecnai G2 Transmission Electron Microscope at 200 kV with a bottom-mounted AMT CCD digital camera.

S=C(Nc1ccc(Cl)cc1)Nc1ccc(Sc2nc3ccccc3[nH]2)cc1 [Compound 9]
ultrastructure of treated S. aureus (TEM): swollen S. aureus cells with a thickened peptidoglycan layer and cell division defects
